In article PMC6017193, “Structure-Based Discovery of a Series of 5H-Pyrrolo[2,3-b]pyrazine FGFR Kinase Inhibitors” (Molecules : A Journal of Synthetic Chemistry and Natural …, 2018):

Experiments:
[1] = target: PDGFR-α (Homo sapiens, UniProt P16234); assay: Kinase panel profiling; type: biochemical
[2] = target: T1, AXL (Homo sapiens, UniProt P30530); assay: Kinase panel profiling; type: biochemical
T1 sequence (P30530 26-894): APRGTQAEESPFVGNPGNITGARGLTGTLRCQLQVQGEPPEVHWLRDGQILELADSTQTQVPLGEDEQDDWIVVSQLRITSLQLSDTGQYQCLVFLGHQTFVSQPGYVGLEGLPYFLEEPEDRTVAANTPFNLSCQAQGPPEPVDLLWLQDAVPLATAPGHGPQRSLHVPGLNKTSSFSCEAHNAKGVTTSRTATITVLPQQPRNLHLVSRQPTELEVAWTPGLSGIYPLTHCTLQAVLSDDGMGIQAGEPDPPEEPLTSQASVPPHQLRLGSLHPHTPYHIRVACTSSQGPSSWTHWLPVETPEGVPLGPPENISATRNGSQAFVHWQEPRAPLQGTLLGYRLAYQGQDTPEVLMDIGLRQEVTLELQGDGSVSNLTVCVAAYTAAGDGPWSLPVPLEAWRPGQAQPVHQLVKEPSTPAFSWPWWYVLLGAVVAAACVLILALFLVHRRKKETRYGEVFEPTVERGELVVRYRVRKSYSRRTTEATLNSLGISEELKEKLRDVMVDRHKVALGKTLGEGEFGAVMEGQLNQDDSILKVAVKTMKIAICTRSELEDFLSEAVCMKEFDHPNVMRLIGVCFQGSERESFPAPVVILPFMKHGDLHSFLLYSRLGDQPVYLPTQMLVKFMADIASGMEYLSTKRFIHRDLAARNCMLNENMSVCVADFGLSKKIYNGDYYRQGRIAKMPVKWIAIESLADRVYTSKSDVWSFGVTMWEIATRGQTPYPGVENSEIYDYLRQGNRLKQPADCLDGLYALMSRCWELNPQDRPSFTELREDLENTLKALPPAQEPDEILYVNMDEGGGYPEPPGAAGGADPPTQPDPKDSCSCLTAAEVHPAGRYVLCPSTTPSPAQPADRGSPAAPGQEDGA

[3] = target: EGFR (Homo sapiens, UniProt P00533); assay: Kinase panel profiling; type: biochemical
[4] = target: T2, c-Met (Homo sapiens, UniProt P08581); assay: Kinase panel profiling (ELISA kinase assay); type: biochemical
T2 construct: purchased Millipore
Experimental: The effects of compounds on the activities of indicated (FGFR1 and c-Met) kinases were determined using enzyme-linked immunosorbent assays (ELISAs) with purified recombinant proteins. Briefly, 20 μg/mL poly (Glu, Tyr)4:1 (Sigma, St. Louis, MO, USA) was precoated in 96-well plates as a substrate. A 50-μL aliquot of 10 μmol/L ATP solution diluted in kinase reaction buffer (50 mmol/L HEPES (pH 7.4), 50 mmol/L MgCl2, 0.5 mmol/L MnCl2, 0.2 mmol/L Na3VO4, and 1 mmol/L DTT) was added to each well; 1 μL of various concentrations of compounds diluted in 1% DMSO (v/v) (Sigma) were then added to each reaction well. DMSO (1%, v/v) was used as the negative control. The kinase reaction was initiated by the addition of purified tyrosine kinase proteins FGFR1 (Millipore, Darmstadt, Germany) or c-Met (Millipore) diluted in 49 μL of kinase reaction buffer. After incubation for 60 min at 37 °C, the plate was washed three times with phosphate-buffered saline (PBS) containing 0.1% Tween 20 (T-PBS). Anti-phosphotyrosine (PY99) antibody (Sanra Cruz, Dallas, TX, USA) (100 μL; 1:500, diluted in 5 mg/mL bovine serum albumin (BSA) T-PBS) was then added. After a 30-min incubation at 37 °C, the plate was washed three times, and 100 μL of horseradish peroxidase-conjugated goat anti-mouse IgG (Calbiochem, Shanghai, China) (1:2000, diluted in 5 mg/mL BSA T-PBS) was added. The plate was then incubated at 37 °C for 30 min, and washed three times. A 100-μL aliquot of a solution containing 0.03% H2O2 and 2 mg/mL o-phenylenediamine in 0.1 mol/L citrate buffer (pH 5.5) was added. The reaction was terminated by the addition of 50 μL of 2 mol/L H2SO4 as the color changed, and the plate was analyzed using a multi-well spectrophotometer (SpectraMAX 190, Molecular Devices, Palo Alto, CA, USA) at 490 nm. The inhibition rate (%) was calculated using the following equation:IR = [1 − (A490/A490control)] × 100%.(1) where IR, A490, and A490control are the inhibition rate, the absorbance value of the tested compound at 490 nm, and the absorbance value of the negative control compound at 490 nm, respectively. The IC50 values were calculated from the inhibition curves in two separate experiments.

[5] = Human liver microsome stability test; type: in vitro ADME; settings: human liver microsomes, pH 7.4, 1 μM test compound, read-out: HLM (human liver microsome stability test, clearance)
Experimental: Microsomes (Human microsome: Xenotech, Lot No.H0610; Rat microsome: Xenotech, Lot No. R1000) (0.5 mg/mL) were preincubated with 1 μM of test compound for 5 min at 37 °C in 0.1 M phosphate buffer (pH 7.4) with 1 mmol Ethylenediaminetetraacetic acid (EDTA), and 5 mmol MgCl2. The reactions were initiated by adding prewarmed cofactors (1 mmol NADPH). After 0-min, 5-min, 10-min, and 30-min incubations at 37 °C, the reactions were stopped by adding an equal volume of cold acetonitrile. The samples were vortexed for 10 min, and then centrifuged at 10,000× g for 10 min. Supernatants were analyzed by LC/MS/MS for the amount of the parent compound remaining, and the corresponding loss of the parent compound was also determined by LC/MS/MS.

[6] = test system: KG1 leukemia cell line harboring FGFR1OP-FGFR1 fusion; assay: Cell proliferation assay in KG1 cells (SRB or MTT, 72 h); type: cell-based; settings: Homo sapiens, KG-1, mean ± SD from two separate experiments, read-out: KG1 IC50 (antiproliferation activity)
Experimental: Cell proliferation was examined in a FGFR1-translocated KG1 leukemia cell line harboring FGFR1OP-FGFR1 fusion. The original KG1 cell line was purchased from ATCC (CRL-8031), and cultured according the ATCC standard protocol. Cells were seeded in 96-well tissue culture plates. On the next day, the cells were exposed to various concentrations of compounds and further cultured for 72 h. Cell proliferation was then determined using sulforhodamine B (SRB, from Sigma-Aldrich, St Louis, MO, USA) or the thiazolyl blue tetrazolium bromide (MTT, from Sigma-Aldrich, St Louis, MO, USA) assay. The IC50 values were calculated by concentration- response curve fitting using the four-parameter method.

Chain of EGFR (P00533 25-1210, species assumed): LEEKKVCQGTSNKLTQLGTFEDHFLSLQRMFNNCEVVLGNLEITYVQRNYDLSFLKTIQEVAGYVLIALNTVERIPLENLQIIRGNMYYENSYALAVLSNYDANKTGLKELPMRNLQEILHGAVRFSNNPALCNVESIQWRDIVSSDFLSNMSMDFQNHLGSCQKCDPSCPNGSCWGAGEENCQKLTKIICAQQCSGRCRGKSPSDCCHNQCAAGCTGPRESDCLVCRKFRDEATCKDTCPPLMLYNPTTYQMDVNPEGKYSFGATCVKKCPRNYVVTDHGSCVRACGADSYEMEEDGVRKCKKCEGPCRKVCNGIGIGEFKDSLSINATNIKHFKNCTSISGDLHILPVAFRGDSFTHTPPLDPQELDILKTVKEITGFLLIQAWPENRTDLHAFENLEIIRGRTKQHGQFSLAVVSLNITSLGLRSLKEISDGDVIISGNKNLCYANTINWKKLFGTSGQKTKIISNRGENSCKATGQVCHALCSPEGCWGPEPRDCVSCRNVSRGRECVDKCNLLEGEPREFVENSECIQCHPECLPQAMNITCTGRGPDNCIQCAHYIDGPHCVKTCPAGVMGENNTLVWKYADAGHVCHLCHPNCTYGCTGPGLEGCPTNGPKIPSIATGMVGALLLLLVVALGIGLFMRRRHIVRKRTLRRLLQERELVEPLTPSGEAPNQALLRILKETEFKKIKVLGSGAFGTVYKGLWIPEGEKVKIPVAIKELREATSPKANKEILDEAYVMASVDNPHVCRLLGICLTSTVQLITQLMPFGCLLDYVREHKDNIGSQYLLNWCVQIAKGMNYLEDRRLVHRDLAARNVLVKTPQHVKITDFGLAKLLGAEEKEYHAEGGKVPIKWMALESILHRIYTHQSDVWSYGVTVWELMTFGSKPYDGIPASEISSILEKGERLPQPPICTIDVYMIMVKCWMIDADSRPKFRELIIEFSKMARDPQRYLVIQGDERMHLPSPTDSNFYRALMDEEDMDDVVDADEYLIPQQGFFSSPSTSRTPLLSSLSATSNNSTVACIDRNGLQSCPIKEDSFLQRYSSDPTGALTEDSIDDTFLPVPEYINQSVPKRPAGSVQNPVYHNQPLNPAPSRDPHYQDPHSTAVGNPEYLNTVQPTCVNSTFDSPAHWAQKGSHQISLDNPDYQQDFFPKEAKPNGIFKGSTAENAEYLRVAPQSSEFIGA
Chain of PDGFR-α (P16234 24-1089, species assumed): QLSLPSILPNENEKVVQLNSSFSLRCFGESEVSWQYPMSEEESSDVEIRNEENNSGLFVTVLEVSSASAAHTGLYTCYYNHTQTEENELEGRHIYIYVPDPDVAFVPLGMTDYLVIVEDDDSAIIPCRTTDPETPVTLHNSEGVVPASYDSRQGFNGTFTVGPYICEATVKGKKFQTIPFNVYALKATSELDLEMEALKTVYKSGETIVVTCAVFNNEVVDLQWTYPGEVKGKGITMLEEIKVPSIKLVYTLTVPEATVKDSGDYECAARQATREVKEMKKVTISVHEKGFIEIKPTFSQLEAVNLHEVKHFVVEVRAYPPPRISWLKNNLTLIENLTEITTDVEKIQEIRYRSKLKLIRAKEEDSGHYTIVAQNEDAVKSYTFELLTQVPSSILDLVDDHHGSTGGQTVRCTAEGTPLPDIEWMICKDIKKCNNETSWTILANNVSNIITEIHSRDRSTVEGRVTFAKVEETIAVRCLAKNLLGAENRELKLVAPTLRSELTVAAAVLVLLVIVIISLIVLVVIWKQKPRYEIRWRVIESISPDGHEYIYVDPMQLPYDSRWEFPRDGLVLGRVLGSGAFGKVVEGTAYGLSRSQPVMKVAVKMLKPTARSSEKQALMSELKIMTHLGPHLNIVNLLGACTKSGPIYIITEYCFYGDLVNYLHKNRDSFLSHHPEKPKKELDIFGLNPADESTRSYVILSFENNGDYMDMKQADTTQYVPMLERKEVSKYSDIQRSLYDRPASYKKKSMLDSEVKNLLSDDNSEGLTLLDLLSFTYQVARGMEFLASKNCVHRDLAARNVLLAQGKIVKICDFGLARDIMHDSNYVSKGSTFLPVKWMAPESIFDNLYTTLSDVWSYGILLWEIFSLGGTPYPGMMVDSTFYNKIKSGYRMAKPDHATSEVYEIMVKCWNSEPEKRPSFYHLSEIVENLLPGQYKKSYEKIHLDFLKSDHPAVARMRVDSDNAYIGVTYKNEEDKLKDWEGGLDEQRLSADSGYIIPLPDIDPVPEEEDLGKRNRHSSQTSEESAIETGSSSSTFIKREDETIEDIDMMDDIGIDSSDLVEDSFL
T2 sequence (P08581 25-1390): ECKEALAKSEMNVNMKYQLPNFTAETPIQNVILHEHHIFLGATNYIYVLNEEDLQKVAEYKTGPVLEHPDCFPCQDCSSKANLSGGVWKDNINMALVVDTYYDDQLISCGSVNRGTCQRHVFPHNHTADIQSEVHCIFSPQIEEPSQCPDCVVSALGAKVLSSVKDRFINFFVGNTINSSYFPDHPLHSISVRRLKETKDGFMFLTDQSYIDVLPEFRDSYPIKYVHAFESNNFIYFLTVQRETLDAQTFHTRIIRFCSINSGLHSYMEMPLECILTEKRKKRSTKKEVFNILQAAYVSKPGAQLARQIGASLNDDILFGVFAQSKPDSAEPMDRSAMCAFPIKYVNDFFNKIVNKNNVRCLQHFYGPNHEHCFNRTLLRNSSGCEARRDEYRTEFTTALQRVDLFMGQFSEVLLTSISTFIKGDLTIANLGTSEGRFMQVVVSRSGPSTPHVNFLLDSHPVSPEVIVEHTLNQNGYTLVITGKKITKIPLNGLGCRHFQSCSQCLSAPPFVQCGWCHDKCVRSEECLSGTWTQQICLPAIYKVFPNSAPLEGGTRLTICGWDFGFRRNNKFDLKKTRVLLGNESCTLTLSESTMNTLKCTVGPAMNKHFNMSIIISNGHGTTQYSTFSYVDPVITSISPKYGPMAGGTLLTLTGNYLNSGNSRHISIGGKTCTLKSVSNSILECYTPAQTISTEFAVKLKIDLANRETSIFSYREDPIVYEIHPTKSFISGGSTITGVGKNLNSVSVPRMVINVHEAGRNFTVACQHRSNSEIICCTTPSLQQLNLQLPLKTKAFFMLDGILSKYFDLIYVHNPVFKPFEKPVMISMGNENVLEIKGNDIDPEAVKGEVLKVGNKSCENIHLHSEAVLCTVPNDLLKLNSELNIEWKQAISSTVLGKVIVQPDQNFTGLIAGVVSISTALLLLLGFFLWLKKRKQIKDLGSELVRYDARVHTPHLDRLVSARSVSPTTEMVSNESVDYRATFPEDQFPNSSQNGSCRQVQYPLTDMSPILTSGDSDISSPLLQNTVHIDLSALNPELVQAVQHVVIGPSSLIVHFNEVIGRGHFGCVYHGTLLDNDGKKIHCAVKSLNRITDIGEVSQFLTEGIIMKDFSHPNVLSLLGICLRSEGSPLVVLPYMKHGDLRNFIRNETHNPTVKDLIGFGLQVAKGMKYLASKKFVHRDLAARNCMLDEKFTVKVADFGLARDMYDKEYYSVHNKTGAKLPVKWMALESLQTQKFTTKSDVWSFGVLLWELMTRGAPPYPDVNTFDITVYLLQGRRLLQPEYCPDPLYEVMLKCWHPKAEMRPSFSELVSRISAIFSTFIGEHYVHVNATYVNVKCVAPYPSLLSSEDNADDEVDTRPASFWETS

Structure (SMILES): O=S(=O)(c1cn(CCF)cn1)n1ccc2ncc(-c3cn[nH]c3)nc21 [Compound 13, 5-((1-(2-fluoroethyl)-1H-imidazol-4-yl)sulfonyl)-3-(1H-pyrazol-4-yl)-5H-pyrrolo[2,3-b]pyrazine]
- inhibition at 0.01 µM ([1]; 10 nM): 21.9%
- inhibition at 0.1 µM ([1]; 100 nM): 20.9%
- inhibition at 1 µM ([1]; 1000 nM): 23.2%
- inhibition at 0.01 µM ([2]; 10 nM): 1.1%
- inhibition at 0.1 µM ([2]; 100 nM): 2.9%
- inhibition at 1 µM ([2]; 1000 nM): -5.5%
- inhibition at 0.01 µM ([3]; 10 nM): 0%
- inhibition at 0.1 µM ([3]; 100 nM): 0%
- inhibition at 1 µM ([3]; 1000 nM): 0%
- inhibition at 0.01 µM ([4]; 10 nM): 3.9%
- inhibition at 0.1 µM ([4]; 100 nM): 3.9%
- Kinase Inhibition (%) c-Met ([4]; 1000 nM (1 μM)): nearly no inhibition
- inhibition at 1 µM ([4]; 1000 nM (1 μM)): 4.6%
- microsomal CLint at 1 μM [5]: 1 µL/min/mg
- IC50 [6]: 29.1 ± 5.5 nM
